# Source: patent publication US7115642B2, “Substituted diphenyl isoxazoles, pyrazoles and oxadiazoles useful for treating HCV infection” (priority 2003, dated 2006)
# Read-outs that look alike come from different tables or passages of the source.
# Key:
# [1] = tested on: HCV replicon (5-2 Luc replicon-comprising cells); assay: HCV replicon assay (luciferase); format: cell-based, Hepatitis C virus; details: 5-2 Luc replicon cells, luciferase readout, read-out: Replicon IC50
# How it was run: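 Huh7-derived 5-2 Luc replicon cells seeded 24 h at 37 °C, then exposed to compound at various concentrations for another 24 h. Luciferase quantified by Bright-Glo luminescence; IC50 = concentration giving 50% reduction in luciferase activity; reported as +/− at a 10 μM cut-off.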
# [2] = Cytotoxicity assay (Cell Titer Glo); format: cell-based; details: human; 48 hr with compound, ATP-dependent Cell Titer Glo assay; read-out: IC50 in cytotoxicity assay (number of viable cells)
# Procedure: Compounds 67, 167, 169, 13, 1, 145, 29, 119, 63, 31, 39, 103, 123, 121, 97, 129, 79, 111, 85, 89, 109, 127, 131, 95, 47, 57, 69, 165, 161, 163, 3, 137, 15, 141, 41, 53, 33, 113, 93, 105, 77, 91, 81, 83, 35, 27, 65, 7, 135, 51, 139, 51, 49, 143, 5, 149, 11, 37, 21, 45, 61, 75, 23, 125, 73, 43, 171 and 101 were tested in a cytotoxicity assay with liver cells including an HCV replicon (5-2 Luc cells, 9–13 cells or Huh-7 cells). In the assay, cells were seeded onto 96-well plates (approx. 7500 cells/well in a volume of 90 μl) and grown for 24 hr at 37° C. On day 2, various concentrations of test compound (in a volume of 10 μl) were added to the wells and the cells were grown for an additional 48 hr at 37° C. On day 4, an ATP-dependent R-Luciferase assay (Cell Titer Glo assay) was performed to determine the number of viable cells.
smiles,measurement,setting,value
"COc1cccc(C(F)(F)F)c1-c1cc(-c2cccc(NC(=O)C(Cl)Cl)c2)on1 [Compound 77, 2,2-Dichloro-N-[3-[3-(2-methoxy-6-trifluoromethylphenyl)-5-isoxazolyl]phenyl]Acetamide]",IC50,[1]; Hepatitis C virus,< 10 µM
same,IC50 at 48 h,[2],> 10 µM
"CN(C)c1cc(Cl)c(-c2cc(-c3cccc(NC(=O)C(Cl)Cl)c3)on2)c(Cl)c1 [Compound 65, 2,2-Dichloro-N-[3-[3-(2,6-dichloro-4-dimethylaminophenyl)-5-isoxazolyl]phenyl]Acetamide]",IC50,[1]; Hepatitis C virus,< 10 µM
same,IC50 at 48 h,[2],> 10 µM
"O=C(Nc1cccc(-c2cc(-c3c(Cl)ccc(Cl)c3Cl)no2)c1)C(Cl)Cl [Compound 137, 2,2-Dichloro-N-[3-[3-(2,3,6-trichlorophenyl)-5-isoxazolyl]phenyl]Acetamide]",IC50,[1]; Hepatitis C virus,> 10 µM
same,IC50 at 48 h,[2],> 10 µM
"O=C(Nc1cccc(-c2cc(-c3c(F)cccc3I)no2)c1)C(Cl)Cl [Compound 49, 2,2-Dichloro-N-[3-[3-(2-fluoro-6-iodophenyl)-5-isoxazolyl]phenyl]Acetamide]",IC50,[1]; Hepatitis C virus,< 10 µM
same,IC50 at 48 h,[2],> 10 µM
"CC(C)Oc1ccccc1-c1cc(-c2cccc(NC(=O)C(Cl)Cl)c2)on1 [Compound 119, 2,2-Dichloro-N-[3-[3-(2-isopropyloxyphenyl)-5-isoxazolyl]phenyl]Acetamide]",IC50,[1]; Hepatitis C virus,< 10 µM
same,IC50 at 48 h,[2],> 10 µM
"O=C(Nc1cccc(-c2cc(-c3ccccc3OCc3ccccc3)no2)c1)C(Cl)Cl [Compound 161, 2,2-Dichloro-N-[3-[3-(2-benzyloxyphenyl)-5-isoxazolyl]phenyl]Acetamide]",IC50,[1]; Hepatitis C virus,> 10 µM
same,IC50 at 48 h,[2],> 10 µM
"Cc1ccc(-c2cc(-c3c(Cl)cccc3Cl)no2)cc1NC(=O)C(Cl)Cl [Compound 165, 2,2-Dichloro-N-[3-[3-(2,6-dichlorophenyl)-5-isoxazolyl]-6-methylphenyl]Acetamide]",IC50,[1]; Hepatitis C virus,> 10 µM
same,IC50 at 48 h,[2],> 10 µM
"O=C(Nc1cccc(-c2cc(-c3cc(C(F)(F)F)ccc3Cl)no2)c1)C(Cl)Cl [Compound 141, 2,2-Dichloro-N-[3-[3-(2-chloro-5-trifluoromethylphenyl)-5-isoxazolyl]phenyl]Acetamide]",IC50,[1]; Hepatitis C virus,> 10 µM
same,IC50 at 48 h,[2],> 10 µM
"CCOc1ccccc1-c1cc(-c2cccc(NC(=O)C(Cl)Cl)c2)on1 [Compound 61, 2,2-Dichloro-N-[3-[3-(2-ethoxyphenyl)-5-isoxazolyl]phenyl]Acetamide]",IC50,[1]; Hepatitis C virus,< 10 µM
same,IC50 at 48 h,[2],> 10 µM
"CC(C)c1cccc(C(C)C)c1-c1cc(-c2cccc(NC(=O)C(Cl)Cl)c2)on1 [Compound 121, 2,2-Dichloro-N-[3-[3-(2,6-diisopropylphenyl)-5-isoxazolyl]phenyl]Acetamide]",IC50,[1]; Hepatitis C virus,< 10 µM
same,IC50 at 48 h,[2],> 10 µM
"CN1CCN(c2cccc(C(F)(F)F)c2-c2cc(-c3cccc(NC(=O)C(Cl)Cl)c3)on2)CC1 [Compound 109, 2,2-Dichloro-N-[3-[3-[2-trifluoromethyl-6-(4-methylpiperazino)phenyl]-5-isoxazolyl]-phenyl]Acetamide]",IC50,[1]; Hepatitis C virus,< 10 µM
same,IC50 at 48 h,[2],> 10 µM
"Cc1ccc(F)c(-c2cc(-c3cccc(NC(=O)C(Cl)Cl)c3)on2)c1F [Compound 149, 2,2-Dichloro-N-[3-[3-(2,6-difluoro-3-methylphenyl)-5-isoxazolyl]phenyl]Acetamide]",IC50,[1]; Hepatitis C virus,> 10 µM
same,IC50 at 48 h,[2],> 10 µM
"O=C(Nc1cccc(-c2cc(-c3c(Cl)cccc3C3CCCCC3)no2)c1)C(Cl)Cl [Compound 111, 2,2-Dichloro-N-[3-[3-(2-chloro-6-cyclohexylphenyl)-5-isoxazolyl]phenyl]Acetamide]",IC50,[1]; Hepatitis C virus,< 10 µM
same,IC50 at 48 h,[2],> 10 µM
"O=C(CCl)Nc1cccc(-c2cc(-c3c(Cl)cccc3Cl)no2)c1 [Compound 67, 2-Chloro-N-[3-[3-(2,6-dichlorophenyl)-5-isoxazolyl]phenyl]Acetamide]",IC50,[1]; Hepatitis C virus,< 10 µM
same,IC50 at 48 h,[2],> 5 µM
"CC(C)c1ccccc1-c1cc(-c2cccc(NC(=O)C(Cl)Cl)c2)on1 [Compound 63, 2,2-Dichloro-N-[3-[3-(2-isopropylphenyl)-5-isoxazolyl]phenyl]Acetamide]",IC50,[1]; Hepatitis C virus,< 10 µM
same,IC50 at 48 h,[2],> 10 µM
O=C(Nc1cc(-c2cc(-c3c(Cl)cccc3Cl)no2)ccc1N1CCOCC1)C(Cl)Cl [Compound 169],IC50,[1],> 10 µM
CS(=O)(=O)NC1CCN(c2cccc(Cl)c2-c2cc(-c3cccc(NC(=O)C(Cl)Cl)c3)on2)C1 (stereo not shown) [Compound 573],IC50,[1],< 10 µM
O=C(NC1CCN(c2cccc(Cl)c2-c2cc(-c3cccc(NC(=O)C(Cl)Cl)c3)on2)CC1)c1cccnc1 [Compound 545],IC50,[1],< 10 µM
CS(=O)(=O)N1CCC(Oc2cccc(Cl)c2-c2cc(-c3cccc(NC(=O)C(Cl)Cl)c3)on2)C1 (stereo not shown) [Compound 596],IC50,[1],< 10 µM
O=C(Nc1cccc(-c2cc(-c3c(Cl)cccc3N3CCSCC3)no2)c1)C(Cl)Cl [Compound 616],IC50,[1],< 10 µM
O=C(Nc1cccc(-c2cc(-c3c(Cl)cccc3N3CCN(C(=O)OCc4ccccc4)CC3)no2)c1)C(Cl)Cl [Compound 622],IC50,[1],< 10 µM
O=C(Nc1cccc(-c2cc(-c3c(Cl)cccc3N3CCN(CCN4CCCCC4)CC3)no2)c1)C(Cl)Cl [Compound 667],IC50,[1],< 10 µM
NC(=O)C1CCN(c2cccc(Cl)c2-c2cc(-c3cccc(NC(=O)C(Cl)Cl)c3)on2)CC1 [Compound 625],IC50,[1],< 10 µM
CC(=O)NC1CCN(c2cccc(Cl)c2-c2cc(-c3cccc(NC(=O)C(Cl)Cl)c3)on2)C1 (stereo not shown) [Compound 565],IC50,[1],< 10 µM
CCNC(=O)NC1CCN(c2cccc(Cl)c2-c2cc(-c3cccc(NC(=O)C(Cl)Cl)c3)on2)CC1 [Compound 579],IC50,[1],< 10 µM
O=C(Nc1cccc(-c2cc(-c3c(Cl)cccc3N3CCN(C(=O)CCc4ccccc4)CC3)no2)c1)C(Cl)Cl [Compound 647],IC50,[1],< 10 µM
CN(C)C(=O)N1CCN(c2cccc(Cl)c2-c2cc(-c3cccc(NC(=O)C(Cl)Cl)c3)on2)CC1 [Compound 531],IC50,[1],< 10 µM
O=C(Nc1cccc(-c2cc(-c3c(Cl)cccc3N3CCN(C(=O)Nc4ccccc4)CC3)no2)c1)C(Cl)Cl [Compound 534],IC50,[1],< 10 µM
O=C(Nc1cccc(-c2cc(-c3c(Cl)cccc3N3CCCCC3)no2)c1)C(Cl)Cl [Compound 503],IC50,[1],< 10 µM
CC(C)(C)OC(=O)N1CCN(c2cccc(Cl)c2-c2cc(-c3cccc(NC(=O)C(Cl)Cl)c3)on2)CC1 [Compound 510],IC50,[1],< 10 µM
O=C(Nc1cccc(-c2cc(-c3c(Cl)cccc3N3CCN(C(=O)c4cc5ccccc5[nH]4)CC3)no2)c1)C(Cl)Cl [Compound 555],IC50,[1],< 10 µM
"O=C(O)c1ccccc1-c1cc(-c2cccc(NC(=O)C(Cl)Cl)c2)on1 [Compound 157, 2,2-Dichloro-N-[3-[3-(2-carboxyphenyl)-5-isoxazolyl]phenyl]Acetamide]",IC50,[1]; Hepatitis C virus,> 10 µM
O=C(Nc1cccc(-c2cc(-c3c(Cl)cccc3N3CCN(Cc4ccc(Cl)cc4)CC3)no2)c1)C(Cl)Cl [Compound 654],IC50,[1],< 10 µM
"COc1ccc(-c2cc(-c3c(Cl)cccc3Cl)no2)cc1NC(=O)C(Cl)Cl [Compound 173, 2,2-Dichloro-N-[3-[3-(2,6-dichlorophenyl)-5-isoxazolyl]-6-methoxyphenyl]Acetamide]",IC50,[1]; Hepatitis C virus,< 10 µM
"O=C(Nc1cccc(-c2cc(-c3c(Cl)cc(Cl)cc3OCCN3CCOCC3)no2)c1)C(Cl)Cl [Compound 143, 2,2-Dichloro-N-[3-[3-[2,4-dichloro-6-(N-morpholino-2-ethyleneoxy)phenyl]-5-isoxazolyl]-phenyl]Acetamide]",IC50,[1],> 10 µM
CS(=O)(=O)Nc1cccc(Cl)c1-c1cc(-c2cccc(NC(=O)C(Cl)Cl)c2)on1 [Compound 561],IC50,[1],< 10 µM
O=C(Nc1cccc(-c2cc(-c3c(Cl)cccc3OC3CCNCC3)no2)c1)C(Cl)Cl [Compound 569],IC50,[1],< 10 µM
O=C(Nc1cccc(-c2cc(-c3c(Cl)cccc3N3CCN(C(=O)Cc4cccnc4)CC3)no2)c1)C(Cl)Cl [Compound 558],IC50,[1],< 10 µM
O=C(Nc1cccc(-c2cc(-c3ccccc3N3CCN(c4ccccn4)CC3)no2)c1)C(Cl)Cl [Compound 614],IC50,[1],> 10 µM
O=C(Nc1cccc(-c2cc(-c3c(Cl)cccc3N3CCN(c4ccccc4)CC3)no2)c1)C(Cl)Cl [Compound 516],IC50,[1],< 10 µM
O=C(Nc1cccc(-c2cc(-c3c(F)cccc3N3CCN(c4ccccn4)CC3)no2)c1)C(Cl)Cl [Compound 521],IC50,[1],< 10 µM
"CS(=O)(=O)c1cccc(F)c1-c1cc(-c2cccc(NC(=O)C(Cl)Cl)c2)on1 [Compound 153, 2,2-Dichloro-N-[3-[3-(2-fluoro-6-methylsulfonyl)phenyl-5-isoxazolyl]phenyl]Acetamide]",IC50,[1],> 10 µM
CC(=O)N1CCCC(Oc2cccc(Cl)c2-c2cc(-c3cccc(NC(=O)C(Cl)Cl)c3)on2)C1 (stereo not shown) [Compound 585],IC50,[1],< 10 µM
O=C(Nc1cccc(-c2cc(-c3c(Cl)cccc3N3CCN(C(=O)c4ccc(C(F)(F)F)cc4)CC3)no2)c1)C(Cl)Cl [Compound 661],IC50,[1],< 10 µM
O=C(Nc1cccc(-c2cc(-c3c(Cl)cccc3N3CCN(C(=O)c4cccnc4)CC3)no2)c1)C(Cl)Cl [Compound 553],IC50,[1],< 10 µM
CCC(=O)N1CCN(c2cccc(Cl)c2-c2cc(-c3cccc(NC(=O)C(Cl)Cl)c3)on2)CC1 [Compound 648],IC50,[1],< 10 µM
